Data set [1] concerns the target T1, CD47 protein (Homo sapiens, UniProt Q08722).
T1 construct: CD47 protein was from Cloud‐Clone; purchased Cloud‐Clone
As to the kind of experiment: Microscale thermophoresis (MST), RS17–CD47 interaction. The class given is binding. The conditions noted are these: Monolith NT.115, NT‐Analysis, Cy5-labeled CD47 mixed 1:1 with diluted peptide, 5 min, room temperature, read-out: dissociation constant (Kd) for RS17 and CD47 interaction. The method, then:
CD47 protein was from Cloud‐Clone. The CD47 protein was dissolved in a buffer solution without primary amine compounds and exchanged by mixed column A. The CD47 protein was stained by Cy5 fluorescent dye (Ruixin Biological Technology) and after staining, the labeled protein was purified by column B. Finally, the RS17 peptides were diluted and mixed with the labeled protein in a 1:1 ratio. After incubating at room temperature for 5 min, samples were detected and data were processed by Monolith NT.115 and NT‐Analysis, which were from NanoTemper.
Microscale thermophoresis (MST) is an effective technique that accurately quantitates the interaction between two molecules. It depends on the thermo‐swimming movement of a molecule, which is a directional transfer of the molecule across a temperature gradient dependent on molecular properties such as molecular size, electric charge, and conformation. ^39 A Monolith NT.115 instrument was used as a platform to perform the MST experiment and the results were analyzed using the accompanying NT‐Analysis software.

Data set [2] relates to RFP HepG2 cells. The conditions noted are these: in vivo, sc, 20 mg/kg. The procedure:
RFP (CMV‐Puro) lentiviral particles were purchased from HanBio. 5 × 10^4 HepG2 in DMEM medium were seeded into each well of a 12‐well plate in presence of 10% FBS. A 6 μg/ml of Polybrene and 20 MOI lentivirus were added to each well. The cells were resuspended in DMEM medium in presence of 8 μg/ml puromycin after a 48‐h transfection. DMEM medium with 8 μg/ml of puromycin was replaced every 2 days for 1 week. RFP‐positive HepG2 cells were then acquired by flow cytometry. Polybrene and puromycin were from Sigma. Nude mice were subcutaneously injected with 2 × 10^7 RFP HepG2 cells into the ventral side and separated into three groups (5 per group). One of the groups was selected as the experimental group and received a daily subcutaneous injection with RS17 (20 mg/kg), the other two groups represented a positive control and a blank control and received a daily subcutaneous injection with B6H12 (20 mg/kg) and PBS, respectively. Daily injections were administered for 28 days. Body weight, tumor volume, and imaging on day 28 were carried out described above.

A short description of data set [3]: Body weight / tolerability in nude mice, ex vivo experiment. The following applies: 7 days. The procedure: Female Balb/c nude mice (4–5 weeks) were bred in the absence of pathogens to assess the antitumor activity of indirect therapies in vivo.
RFP‐positive HepG2 cells at a concentration of 2 × 10^7/ml were first co‐incubated for 1 h with 1 μM B6H12 (positive control) or RS17. The nude mice were separated into three groups (5 per group) and subcutaneously injected with 200 μl RFP‐positive HepG2 cells into the ventral side. Normal feeding lasted for 7 days. Body weight and tumor volume were measured in nude mice. Tumor dimensions were measured in two directions with and the formula of ½ × a × b ^2 (a, length; b, width) was used to calculate tumor volume. The intravital fluorescence intensity of the tumors were detected with PerkinElmer IVIS Spectrum on day 7.

The subject of data set [4] is HepG2 cells. In words: Flow cytometry binding of FITC‐RS17 to HepG2 cells. Format: cell-based, human. The following applies: 1 μM FITC‐RS17, 1 h, 37℃. The procedure: (§1) The peptides were synthesized using the solid‐phase peptide synthesis method. Amino acid activation phase included 1‐hydroxybenzotriazole (HOBt) and N, N′‐diisopropylcarbodiimide (DIC). Deprotection agent was piperidine (PIP). Following synthesis, the peptides were cleaved with 90% of trifluoroacetic acid (TFA) and precipitated with ether to obtain the crude product. The crude peptides were purified by HPLC and the molecular weight were measured by online ESI‐MS, respectively. Besides, the FITC‐RS17 peptide was prepared by coupling with FITC through the Acp active group to RS17. The product was purified and analyzed by the same process.
(§2) The SCC‐13 human cutaneous squamous cell carcinoma cell lines, HepG2 human HCC cell line, THP‐1 human mononuclear cell line, and mouse mononuclear/macrophage cell lines were from Chinese Academy of Sciences in Shanghai. SCC‐13 and HepG2 cells were incubated in DMEM medium which contains 100 μg/ml of streptomycin and 50 μg/ml of penicillin. The medium also contains 10% of fetal bovine serum from Gibco Life Technologies. […]
(§3) The binding of RS17 to the CD47‐expressing cells were assessed by the Flow cytometry technique. […]. ^14 In brief, HepG2 and SCC‐13 cells were collected and adjusted to 3 × 10^6 cells/ml. […] After washing with PBS, the cells were analyzed with a flow cytometer (Miltenyi Biotec GmbH). Data were analyzed with FlowJo 7.6.

Data set [5] relates to SCC‐13 cells. As to the kind of experiment: Flow cytometry binding of FITC‐RS17 to SCC‐13 cells. Format: cell-based, human. The following applies: 1 μM FITC‐RS17, 1 h, 37℃. The method, then:
as §1, §2, §3

The target in data set [6] is CD47 on SCC-13 and HepG2 tumor cells (human (endogenous in SCC-13 and HepG2)) (UniProt Q08722).
Sequence of CD47 on SCC-13 and HepG2 tumor cells (human (endogenous in SCC-13 and HepG2)) (Q08722 19-323): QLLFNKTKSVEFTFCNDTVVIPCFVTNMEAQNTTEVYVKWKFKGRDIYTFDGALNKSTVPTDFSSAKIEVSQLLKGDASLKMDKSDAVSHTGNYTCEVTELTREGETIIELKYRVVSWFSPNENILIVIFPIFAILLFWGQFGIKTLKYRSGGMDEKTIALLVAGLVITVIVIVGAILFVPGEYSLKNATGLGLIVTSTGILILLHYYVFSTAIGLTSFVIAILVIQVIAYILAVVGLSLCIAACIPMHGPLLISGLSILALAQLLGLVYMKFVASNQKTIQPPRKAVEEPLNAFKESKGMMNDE

Where no end group is shown, it is not given here. The star is where a group is joined. FITC = O=C1OC2(c3ccc(O)cc3Oc3cc(O)ccc32)c2ccc(NC(=S)*)cc21; Acp = not defined here

Consider RRYKQDGGWSHWSPWSS [RS17], for which the Kd in data set [1] was 3.86 ± 0.789 nM. Further, the “inhibition of tumor growth” value in data set [2] is on record as > 50%. The tolerability result in data set [3] is on record as “well tolerated”.

“FITC‐RS17: prepared by coupling with FITC through the Acp active group to RS17 ({FITC-Acp}-RRYKQDGGWSHWSPWSS; reading uncertain)”: the “binding of FITC‐RS17 to HepG2 cells (in words)” value in data set [4] is “effectively bound”. The “binding of FITC‐RS17 to SCC‐13 cells (in words)” value in data set [5] is “effectively bound”.

B1: RS17 peptide (peptide)
peptide: RRYKQDGGWSHWSPWSS
On to B1, for which the in vivo: growth of HepG2 xenografts in nude mice with daily subcutaneous RS17 (20 mg/kg) for 28 days; pair blocked: CD47 on HepG2 and SIRPα on mouse macrophages in data set [6] is > 50%.

Values taken from PMC7957188, “An antitumor peptide RS17‐targeted CD47, design, synthesis, and antitumor activity” (Cancer Medicine, 2021).
